The nature of data set [1]: Microscopic observation of gel compositions for methylparaben crystalline particles. The data set is classed as physicochemical. Here is the method:
Microscopic observations were performed on additional representative batches of brimonidine topical gel compositions and placebo gel compositions containing 1.25% (w/w) carbomer, POBM and other ingredients. The observations have been done on one tube of each batch, with the microscope Axiolab DRBKT Zeiss no. 023733.01 with a camera ICC Zeiss or the microscope Olympus BX60. The microscopic observations were done at 5° C. and room temperature.
Numerous formulations with different ingredients and varying concentrations of the ingredients were made and tested for the presence of the paraben crystals by microscopic observations. The microbiological quality of the formulations was also analyzed by using acceptance-test criteria in preservative-efficacy testing (PET) in the United States Pharmacopeia (USP) and the European Pharmacopoeia (EP).

Data set [2] can be described thus: Methylparaben concentration in supernatant after centrifugation of a batch with crystals. The data set is classed as physicochemical. Here is the method:
Centrifugation was performed on the batch to collect crystals at the bottom of the centrifuge tube, thus removing them from the supernatant.

For `COC(=O)c1ccc([O-])cc1.[Na+]` [Na POBM], in data set [1] (methylparaben replaced with Na POBM at 0.3% (w/w)), the “crystalline particles in formulation” value is recorded as “crystalline particles of Na POBM were still observed”.
As to `COC(=O)c1ccc(O)cc1` [methylparaben], the recrystallization in formulation entry in data set [1] (0.3% (w/w) POBM, addition of 0.1% of EDTA) was “immediate recrystallization”. Also, in data set [2] (batch originally containing 0.3% (w/w) methylparaben), the “supernatant methylparaben as share of the 0.3% (w/w) in the original formulation” value was “about 66%”. The “methylparaben concentration in the supernatant” value in data set [2] (batch originally containing 0.3% (w/w) methylparaben with crystals, after centrifugation) was “about 0.2 % (w/w)”.

These data come from patent US20120101104A1, “TOPICAL GEL COMPOSITIONS AND METHODS OF USE” (GALDERMA S.A., priority 2010, published 2012).
